Patent publication US12478585B2, “Micelles and vesicles for the delivery of glycopeptides” (ARIZONA BOARD OF REGENTS ON BEHALF OF THE UNIVERSITY OF …, priority 2017, dated 2025)

Assays:
[1] = Table 2, marked (lit); cited from earlier work
[2] = CMC determination by DOSY NMR (diffusion coefficients vs inverse concentration, linear regression); type: physicochemical; conditions: for CMC: DOSY, in D2O, Table 1; for CMC, DOSY (Diffusion Coefficients): Table 2
Description: Sample solutions were transferred (500 μL) to 5 mm NMR tubes for automated analysis via Bruker 400 MHz spectrometer. Gradient pulse strengths and delays were standardized for all experiments, with a pulse interval (δ) of 3 ms and diffusion interval (Δ) of 200 ms; these values were experimentally determined to ensure the arrayed diffusion data would provide a reasonable curve for accurate Dc determination.
Stacked data arrays were processed in MestReNova® by setting the appropriate value “k” standardized to known self-diffusion coefficients of the bulk solvent, then applying Bayesian DOSY transform to yield pseudo-2D spectra containing the ^1H NMR spectrum vs diffusion coefficients. Averaged values for samples at each concentration were plotted vs. the inverse concentration. Data points from monomeric and aggregated samples were identified by the first signs of decreasing Dc, and linear regression of the two sets provided an intercept estimated as the CMC. Slope and intercept errors were used to calculate error.
Linear regression of the data sets, i.e. monomers and aggregates, provided an intercept estimated as the CMC. […] CMC's decreased approximately a full order of magnitude when the hydrocarbon chain length increased by two methylene groups as described previously.

[3] = literature; cited from earlier work
[4] = CMC by surface tensiometry; type: physicochemical; conditions: Table 2
From the text: CMC measurements from DOSY experiments agree with previously reported surface tensiometry data for melibiosides and cellobiosides, as well as literature values for the glucosides.

[5] = Aggregate radius and aggregation number (Nagg) from DOSY diffusion data (Stokes-Einstein, spherical model); type: physicochemical; conditions: D2O
Description: The Stokes-Einstein equation provided estimated aggregate radii from the recorded diffusion coefficients. Further, Tanford's equations: lc≤lmax≈(0.154+0.1265n)nm and v≈(27.4+26.9n)×[…] nm^3 were used to calculate the critical volume (v) and maximum length (lmax) of the hydrocarbon tail based on the length of the lipid tail, n. Energy-minimized structures in MOE® were measured to find critical length (lc) values.
The average micelle radius (r) was calculated for each concentration of the surfactants (FIG. 9). Using molecular volume (V) calculations from MOE®, a spherical model was used to estimate aggregation numbers (Nagg) for each sample (FIG. 10). In general, these values correspond well to values determined by fluorescence quenching experiments. For samples such as decyl glucoside and dodecyl melibioside, Nagg values greater than 200 are representative of both the fact that larger aggregates will form at high concentrations, and that D2O (and 0.9% NaCl in H2O) induces the formation of higher order structures. Dodecyl melibioside is an example, where previous fluorescence quenching experiments show Nagg averages at 65 in concentrations over 20 mM. For these DOSY experiments Nagg is above 300 at only 5 mM, […], and more likely describing rod-like aggregates.

[6] = Solubility/precipitation behaviour in D2O, 0.9% NaCl and buffers
Description: NMR samples were prepared in triplicate by diluting concentrated stock solutions of the alkyl glycoside or SDS in D2O to concentrations below the known or estimated CMC values. For highly concentrated and/or insoluble samples, vials were warmed in an oil bath until the solution formed and was clear and cooled to RT. Precipitated samples were measured both before and after filtration of the precipitate to observe diffusion behavior. Solutions of the three glucosides were also prepared from 100 mM stock solutions of the glycolipid in dry CHCl3, with addition of D2O to aid solubility and aggregation. Soluble samples were analyzed to determine behavior in apolar conditions.

[7] = previous fluorescence quenching experiments, concentrations over 20 mM; cited from earlier work

SMILES | CMC, Surface Tens. (lit) [1] [mM] | CMC [2] [mM] | CMC, DOSY (Diffusion Coefficients) [2] [mM] | a0 [Lit.] (headgroup area) [3] [Å^2] | CMC, Surface Tens. [4] [mM] | radius of "large" aggregates ([5]; samples containing precipitate) [Å] | radius of "small" aggregates ([5]; samples containing precipitate) [Å] | solubility / precipitation [6] | Nagg average (aggregation number) [7] | Nagg (aggregation number) ([5]; at 5 mM)
CCCCCCCCCCCCOS(=O)(=O)[O-].[Na+] [SDS, reference compound] | 8.2 | 8.5 ± 1.7 | 8.4 ± 2 | 61 | – | – | – | – | – | –
CCCCCCCCCCCCOC1O[C@H](CO)[C@@H](O[C@@H]2O[C@H](CO)[C@@H](O)[C@H](O)[C@H]2O)[C@H](O)[C@H]1O (some centres unmarked) [Dodecyl Cellobioside] | – | – | 0.29 ± 0.4 | 49 | 0.18 ± 0.01 | – | – | – | – | –
CCCCCCCCCCO[C@@H]1O[C@H](CO)[C@@H](O)[C@H](O)[C@H]1O [Decyl Glucoside] | 2.2 | 1.9 ± 0.9 | 2.1 ± 0.7 | 42 | – | 90 | 40 | – | – | –
CCCCCCCCCCCCO[C@@H]1O[C@H](CO)[C@@H](O)[C@H](O)[C@H]1O [Dodecyl Glucoside] | – | – | – | 34 | – | – | – | remained insoluble | – | –
CCCCCCCCOC1O[C@H](CO[C@H]2O[C@H](CO)[C@H](O)[C@H](O)[C@H]2O)[C@@H](O)[C@H](O)[C@H]1O (some centres unmarked) [Octyl Melibioside] | – | 39.9 ± 5.2 | 40 ± 5 | 73 | 44 ± 5 | – | – | – | – | –
CCCCCCCCCCOC1O[C@H](CO)[C@@H](O[C@@H]2O[C@H](CO)[C@@H](O)[C@H](O)[C@H]2O)[C@H](O)[C@H]1O (some centres unmarked) [Decyl Cellobioside] | – | 1.8 ± 0.3 | 2.2 ± 0.7 | 50 | 1.8 ± 0.2 | – | – | – | – | –
CCCCCCCCCCCCOC1O[C@H](CO[C@H]2O[C@H](CO)[C@H](O)[C@H](O)[C@H]2O)[C@@H](O)[C@H](O)[C@H]1O (some centres unmarked) [Dodecyl Melibioside] | – | 0.3 ± 0.00 | 0.31 ± 0.005 | 51 | 0.30 ± 0.02 | – | – | – | 65 | above 300
CCCCCCCCOC1O[C@H](CO)[C@@H](O[C@@H]2O[C@H](CO)[C@@H](O)[C@H](O)[C@H]2O)[C@H](O)[C@H]1O (some centres unmarked) [Octyl Cellobioside] | – | 19.7 ± 2.2 | 21 ± 2 | 50 | 19 ± 3 | – | – | – | – | –
CCCCCCCCCCOC1O[C@H](CO[C@H]2O[C@H](CO)[C@H](O)[C@H](O)[C@H]2O)[C@@H](O)[C@H](O)[C@H]1O (some centres unmarked) [Decyl Melibioside] | – | 3.9 ± 0.1 | 3.9 ± 0.1 | 68 | 3.3 ± 0.2 | – | – | – | – | –
CCCCCCCCO[C@@H]1O[C@H](CO)[C@@H](O)[C@H](O)[C@H]1O [Octyl Glucoside] | 20 | 22.5 ± 2.4 | 20 ± 3 | 42 | – | – | – | – | – | –
